Experiment [1] has as its target T1, 5-hydroxytryptamine receptor 2C (Homo sapiens, UniProt P28335).
T1 sequence (P28335 whole entry): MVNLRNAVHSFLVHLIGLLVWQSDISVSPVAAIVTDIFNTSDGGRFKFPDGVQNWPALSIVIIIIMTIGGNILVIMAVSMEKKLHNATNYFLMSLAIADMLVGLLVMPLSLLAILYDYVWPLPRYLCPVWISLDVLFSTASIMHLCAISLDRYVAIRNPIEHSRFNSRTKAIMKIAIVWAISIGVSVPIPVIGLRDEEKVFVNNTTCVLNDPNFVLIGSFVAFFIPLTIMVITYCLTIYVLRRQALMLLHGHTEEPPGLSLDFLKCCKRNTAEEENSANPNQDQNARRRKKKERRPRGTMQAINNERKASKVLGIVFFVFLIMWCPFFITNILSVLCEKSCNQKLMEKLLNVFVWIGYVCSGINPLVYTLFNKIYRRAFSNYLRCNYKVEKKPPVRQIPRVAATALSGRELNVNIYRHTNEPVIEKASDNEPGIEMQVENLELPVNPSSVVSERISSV

For experiment [2], the target named is Adenosine receptor A2a (Homo sapiens, UniProt P29274).
In experiment [3] the target is T2, Type-1 angiotensin II receptor (Homo sapiens, UniProt P30556).
T2 sequence (P30556 whole entry): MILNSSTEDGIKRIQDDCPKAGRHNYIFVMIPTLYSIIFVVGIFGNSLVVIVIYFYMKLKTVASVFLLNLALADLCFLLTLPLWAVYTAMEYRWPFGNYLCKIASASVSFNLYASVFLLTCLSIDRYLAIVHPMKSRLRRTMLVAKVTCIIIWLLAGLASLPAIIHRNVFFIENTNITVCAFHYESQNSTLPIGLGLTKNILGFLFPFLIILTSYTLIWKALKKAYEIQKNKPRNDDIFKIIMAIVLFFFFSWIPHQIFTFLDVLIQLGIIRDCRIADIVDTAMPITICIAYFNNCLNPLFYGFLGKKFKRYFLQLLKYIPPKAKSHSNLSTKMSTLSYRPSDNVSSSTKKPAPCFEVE

Experiment [4] addresses Neuronal acetylcholine receptor subunit alpha-4 (Homo sapiens, UniProt P43681).
Experiment [5] concerns the target Voltage-gated inwardly rectifying potassium channel KCNH2 (Homo sapiens, UniProt Q12809). The class given is functional. As to conditions: read-out: AC50.
In experiment [6] the target is Melanocortin receptor 3 (Homo sapiens, UniProt P41968).
Experiment [7] addresses Gamma-aminobutyric acid receptor subunit alpha-1 (Rattus norvegicus, UniProt P62813). The class given is functional.
The target of experiment [8] is T3, Alpha-2C adrenergic receptor (Homo sapiens, UniProt P18825).
T3 sequence (P18825 whole entry): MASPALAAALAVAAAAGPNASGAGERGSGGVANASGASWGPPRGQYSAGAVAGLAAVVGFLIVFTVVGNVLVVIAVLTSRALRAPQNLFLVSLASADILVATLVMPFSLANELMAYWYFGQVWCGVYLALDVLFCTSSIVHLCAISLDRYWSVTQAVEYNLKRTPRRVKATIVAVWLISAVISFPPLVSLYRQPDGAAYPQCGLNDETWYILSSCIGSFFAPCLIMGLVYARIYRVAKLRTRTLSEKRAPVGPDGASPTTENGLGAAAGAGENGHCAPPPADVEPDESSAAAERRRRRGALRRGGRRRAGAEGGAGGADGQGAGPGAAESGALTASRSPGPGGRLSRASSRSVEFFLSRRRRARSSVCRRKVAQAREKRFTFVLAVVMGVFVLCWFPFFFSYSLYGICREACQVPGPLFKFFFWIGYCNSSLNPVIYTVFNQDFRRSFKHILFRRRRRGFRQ
The class given is functional.

The target of experiment [9] is T4, Amine oxidase [flavin-containing] A (Homo sapiens, UniProt P21397).
T4 sequence (P21397 whole entry): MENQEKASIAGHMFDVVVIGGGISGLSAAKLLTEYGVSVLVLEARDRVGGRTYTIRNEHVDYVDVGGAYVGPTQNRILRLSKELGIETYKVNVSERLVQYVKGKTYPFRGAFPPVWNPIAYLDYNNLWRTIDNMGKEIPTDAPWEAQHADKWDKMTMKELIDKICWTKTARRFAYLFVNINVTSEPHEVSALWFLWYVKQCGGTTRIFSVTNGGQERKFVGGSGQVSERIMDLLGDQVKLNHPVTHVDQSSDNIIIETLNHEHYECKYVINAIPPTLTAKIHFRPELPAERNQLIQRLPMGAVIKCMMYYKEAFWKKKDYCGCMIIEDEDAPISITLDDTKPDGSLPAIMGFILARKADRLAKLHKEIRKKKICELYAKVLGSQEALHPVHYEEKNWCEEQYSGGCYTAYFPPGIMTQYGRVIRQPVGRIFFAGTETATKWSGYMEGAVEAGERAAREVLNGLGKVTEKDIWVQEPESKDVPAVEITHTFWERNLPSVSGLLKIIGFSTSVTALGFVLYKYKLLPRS
In kind it is functional.

The target in experiment [10] is T5, Alpha-2A adrenergic receptor (Homo sapiens, UniProt P08913).
T5 sequence (P08913 whole entry): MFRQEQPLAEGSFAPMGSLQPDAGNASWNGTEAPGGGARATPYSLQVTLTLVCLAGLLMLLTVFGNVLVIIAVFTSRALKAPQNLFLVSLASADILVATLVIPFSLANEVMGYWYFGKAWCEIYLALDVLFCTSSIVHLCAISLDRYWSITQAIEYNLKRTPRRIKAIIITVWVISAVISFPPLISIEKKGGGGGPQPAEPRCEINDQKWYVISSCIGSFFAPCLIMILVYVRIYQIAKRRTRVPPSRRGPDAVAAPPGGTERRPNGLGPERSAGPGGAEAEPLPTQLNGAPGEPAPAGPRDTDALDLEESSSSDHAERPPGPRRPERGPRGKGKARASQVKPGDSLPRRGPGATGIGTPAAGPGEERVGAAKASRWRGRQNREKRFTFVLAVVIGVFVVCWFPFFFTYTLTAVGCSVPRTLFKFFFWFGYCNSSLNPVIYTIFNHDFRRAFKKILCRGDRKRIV
In kind it is functional, cell-based.

Experiment [11] addresses Sodium-dependent noradrenaline transporter (Homo sapiens, UniProt P23975).

SMILES strings stand for the structures.

In general, AC50 refers to the midpoint of the concentration-response curve, whichever way the signal moves.
Note: assay procedure not described here.

Neuronal acetylcholine receptor subunit alpha-4, sequence (P43681 whole entry): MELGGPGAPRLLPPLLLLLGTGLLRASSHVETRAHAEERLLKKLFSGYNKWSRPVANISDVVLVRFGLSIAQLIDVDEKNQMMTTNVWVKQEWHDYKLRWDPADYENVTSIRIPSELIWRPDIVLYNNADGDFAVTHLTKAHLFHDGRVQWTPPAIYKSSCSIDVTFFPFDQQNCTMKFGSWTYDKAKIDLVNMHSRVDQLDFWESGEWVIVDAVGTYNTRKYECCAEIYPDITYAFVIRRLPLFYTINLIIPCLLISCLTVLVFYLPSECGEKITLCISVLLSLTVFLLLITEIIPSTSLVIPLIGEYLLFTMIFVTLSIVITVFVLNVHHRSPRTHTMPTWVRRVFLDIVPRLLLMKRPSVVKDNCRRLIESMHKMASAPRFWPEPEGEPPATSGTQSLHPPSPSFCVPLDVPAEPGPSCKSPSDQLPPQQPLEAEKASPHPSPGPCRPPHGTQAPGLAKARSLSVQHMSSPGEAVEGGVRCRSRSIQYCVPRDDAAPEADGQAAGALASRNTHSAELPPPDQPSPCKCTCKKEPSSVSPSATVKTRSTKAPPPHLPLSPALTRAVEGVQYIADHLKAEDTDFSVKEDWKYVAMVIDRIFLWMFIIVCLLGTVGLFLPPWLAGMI
Voltage-gated inwardly rectifying potassium channel KCNH2, sequence (Q12809 whole entry): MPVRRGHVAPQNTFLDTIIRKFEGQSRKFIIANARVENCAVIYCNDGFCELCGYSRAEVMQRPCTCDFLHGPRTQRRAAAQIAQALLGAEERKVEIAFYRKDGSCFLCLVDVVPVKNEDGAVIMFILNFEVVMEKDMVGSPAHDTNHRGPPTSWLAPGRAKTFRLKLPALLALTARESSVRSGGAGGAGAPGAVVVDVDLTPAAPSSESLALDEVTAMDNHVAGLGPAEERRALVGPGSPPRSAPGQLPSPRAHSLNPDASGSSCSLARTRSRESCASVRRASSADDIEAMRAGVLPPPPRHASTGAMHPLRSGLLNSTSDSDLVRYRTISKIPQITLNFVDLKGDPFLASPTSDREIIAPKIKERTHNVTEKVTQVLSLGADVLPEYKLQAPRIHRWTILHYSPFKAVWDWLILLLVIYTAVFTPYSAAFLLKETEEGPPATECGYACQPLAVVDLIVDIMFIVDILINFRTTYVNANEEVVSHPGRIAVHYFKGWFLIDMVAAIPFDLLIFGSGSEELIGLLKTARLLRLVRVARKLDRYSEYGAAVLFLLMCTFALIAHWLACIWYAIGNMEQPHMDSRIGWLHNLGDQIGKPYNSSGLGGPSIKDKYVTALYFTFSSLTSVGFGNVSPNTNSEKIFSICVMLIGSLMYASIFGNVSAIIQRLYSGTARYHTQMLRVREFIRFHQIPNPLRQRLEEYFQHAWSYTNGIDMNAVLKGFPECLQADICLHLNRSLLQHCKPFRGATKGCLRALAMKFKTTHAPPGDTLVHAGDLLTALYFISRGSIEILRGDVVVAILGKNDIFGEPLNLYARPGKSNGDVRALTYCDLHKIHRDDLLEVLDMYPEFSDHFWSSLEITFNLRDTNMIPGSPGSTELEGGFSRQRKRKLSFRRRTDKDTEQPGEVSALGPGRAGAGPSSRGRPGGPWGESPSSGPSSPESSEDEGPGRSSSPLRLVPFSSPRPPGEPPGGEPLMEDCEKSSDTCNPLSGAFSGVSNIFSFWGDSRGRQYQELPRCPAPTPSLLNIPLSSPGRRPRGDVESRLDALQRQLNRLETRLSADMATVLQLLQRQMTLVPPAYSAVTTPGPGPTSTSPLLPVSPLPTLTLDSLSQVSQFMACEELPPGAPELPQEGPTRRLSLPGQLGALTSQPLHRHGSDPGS
Melanocortin receptor 3, sequence (P41968 whole entry): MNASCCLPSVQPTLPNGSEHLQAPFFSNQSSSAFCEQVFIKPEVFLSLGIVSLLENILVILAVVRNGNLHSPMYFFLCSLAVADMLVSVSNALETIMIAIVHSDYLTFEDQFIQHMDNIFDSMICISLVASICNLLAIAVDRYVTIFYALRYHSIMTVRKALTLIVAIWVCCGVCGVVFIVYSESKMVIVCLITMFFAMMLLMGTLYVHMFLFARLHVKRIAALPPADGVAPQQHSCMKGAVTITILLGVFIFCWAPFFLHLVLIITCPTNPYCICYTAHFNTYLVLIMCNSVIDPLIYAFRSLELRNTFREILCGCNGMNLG
Adenosine receptor A2a, sequence (P29274 whole entry): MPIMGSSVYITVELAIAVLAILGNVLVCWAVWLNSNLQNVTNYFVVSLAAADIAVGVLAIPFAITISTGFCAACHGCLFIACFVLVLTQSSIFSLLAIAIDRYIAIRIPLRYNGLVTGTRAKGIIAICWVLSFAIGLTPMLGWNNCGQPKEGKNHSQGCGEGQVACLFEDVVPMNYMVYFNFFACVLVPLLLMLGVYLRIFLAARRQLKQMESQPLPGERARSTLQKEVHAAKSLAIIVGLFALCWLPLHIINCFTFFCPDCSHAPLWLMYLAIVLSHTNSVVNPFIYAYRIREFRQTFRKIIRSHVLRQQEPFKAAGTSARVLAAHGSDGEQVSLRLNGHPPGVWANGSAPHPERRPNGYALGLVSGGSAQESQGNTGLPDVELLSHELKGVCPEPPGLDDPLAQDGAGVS
Gamma-aminobutyric acid receptor subunit alpha-1, sequence (P62813 whole entry): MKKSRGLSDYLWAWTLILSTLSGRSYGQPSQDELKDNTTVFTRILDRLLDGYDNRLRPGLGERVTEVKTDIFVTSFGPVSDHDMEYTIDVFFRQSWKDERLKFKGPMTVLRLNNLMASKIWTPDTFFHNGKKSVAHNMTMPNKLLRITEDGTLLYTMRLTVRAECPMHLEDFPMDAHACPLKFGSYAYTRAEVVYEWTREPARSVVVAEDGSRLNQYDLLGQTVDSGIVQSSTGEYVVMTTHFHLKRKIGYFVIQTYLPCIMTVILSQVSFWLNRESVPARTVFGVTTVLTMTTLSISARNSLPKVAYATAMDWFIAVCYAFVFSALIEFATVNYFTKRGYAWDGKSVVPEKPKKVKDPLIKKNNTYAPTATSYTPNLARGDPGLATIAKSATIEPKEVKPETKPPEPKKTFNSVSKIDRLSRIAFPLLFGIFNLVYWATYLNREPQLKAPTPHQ
Sodium-dependent noradrenaline transporter, sequence (P23975 whole entry): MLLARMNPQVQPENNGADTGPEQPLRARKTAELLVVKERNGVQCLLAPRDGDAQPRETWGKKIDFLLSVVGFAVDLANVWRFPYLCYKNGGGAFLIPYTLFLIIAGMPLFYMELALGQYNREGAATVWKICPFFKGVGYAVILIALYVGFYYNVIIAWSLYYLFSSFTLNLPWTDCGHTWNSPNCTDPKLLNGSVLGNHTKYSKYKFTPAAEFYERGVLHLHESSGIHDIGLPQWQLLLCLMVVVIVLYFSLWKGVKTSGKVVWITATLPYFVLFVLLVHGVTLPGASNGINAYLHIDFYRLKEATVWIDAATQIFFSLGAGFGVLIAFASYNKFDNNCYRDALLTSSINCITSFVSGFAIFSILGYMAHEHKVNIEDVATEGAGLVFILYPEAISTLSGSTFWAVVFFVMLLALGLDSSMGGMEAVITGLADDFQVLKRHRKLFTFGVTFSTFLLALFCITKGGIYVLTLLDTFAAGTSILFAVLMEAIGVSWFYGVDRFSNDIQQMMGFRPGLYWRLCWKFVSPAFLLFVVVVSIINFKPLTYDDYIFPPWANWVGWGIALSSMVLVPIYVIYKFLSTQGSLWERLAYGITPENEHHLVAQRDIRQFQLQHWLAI

For `CC(C(=O)O)c1ccc(N2CC=CC2)c(Cl)c1` (centres undefined) [PIRPROFEN], the AC50 is over 30 µM in experiment [1]; over 30 µM in experiment [2]; over 30 µM in experiment [3]; over 10 µM in experiment [4]; over 30 µM in experiment [5]; over 30 µM in experiment [6]. Besides, the AC50 in experiment [7], in experiment [8], in [9], in experiment [10] and in experiment [11] was over 10 µM throughout.
Take `CC[C@H](C)C(=O)O[C@H]1C[C@H](O)C=C2C=C[C@H](C)[C@H](CC[C@@H](O)C[C@@H](O)CC(=O)O)[C@H]21` [PRAVASTATIN]: the half-maximal activity concentration (AC50) in experiment [1], in experiment [2], in [3], in [4], in [5] and in [6] was over 30 µM in each case. Moreover, the AC50 in experiment [7], in [8], in experiment [9], in [10] and in experiment [11] was over 30 µM throughout.
On to `NC(=O)c1cnccn1` [PYRAZINAMIDE], for which the concentration at half-maximal activity (AC50) is over 30 µM in experiment [1]; over 30 µM in experiment [2]; over 30 µM in experiment [3]; over 30 µM in [4]; over 30 µM in [5]; 12.6 µM in experiment [6]. For the same molecule, the AC50 in experiment [7], in [8], in [9], in experiment [10] and in experiment [11] was over 30 µM in each case.
For `CNC(=O)c1cc(Oc2ccc(NC(=O)Nc3ccc(Cl)c(C(F)(F)F)c3)cc2)ccn1` [SORAFENIB], the AC50 in experiment [1] is over 30 µM; in experiment [2], over 30 µM; in [3], 11 µM; in [4], over 30 µM; in [5], over 30 µM; in [6], 23.2 µM. Also, the AC50 was over 30 µM in experiment [7]; over 30 µM in [8]; 8.26 µM in experiment [9]; over 30 µM in [10]; over 30 µM in experiment [11].
Regarding `CC(C(=O)O)c1ccc(C(=O)c2cccs2)cc1` (centres undefined) [SUPROFEN], the AC50 is over 30 µM in experiment [1]; over 10 µM in experiment [2]; over 10 µM in [3]; over 10 µM in experiment [4]; over 30 µM in experiment [5]; over 10 µM in [6]. The concentration at half-maximal activity (AC50) in [7], in experiment [8], in experiment [9], in [10] and in [11] was over 10 µM each time.
On to `CS(=O)(=O)c1ccc([C@@H](O)[C@@H](CO)NC(=O)C(Cl)Cl)cc1` [THIAMPHENICOL], for which the AC50 in experiment [1], in [2], in [3], in [4], in experiment [5] and in experiment [6] was over 30 µM in each case. Besides, the AC50 in experiment [7], in [8], in experiment [9], in experiment [10] and in experiment [11] was over 30 µM throughout.
For `Cc1ccc(C(=O)c2cc(O)c(O)c([N+](=O)[O-])c2)cc1` [TOLCAPONE], the AC50 was over 10 µM in [1]; over 30 µM in experiment [2]; over 10 µM in [3]; over 10 µM in experiment [4]; 1.95 µM in [5]; over 10 µM in experiment [6]. The half-maximal activity concentration (AC50) in experiment [7] is over 10 µM; in experiment [8], over 10 µM; in experiment [9], over 10 µM; in experiment [10], over 10 µM; in experiment [11], 12.9 µM.
For `NC[C@H]1CC[C@H](C(=O)O)CC1` [TRANEXAMIC ACID], the half-maximal activity concentration (AC50) in [1] is over 30 µM; in [2], over 10 µM; in experiment [3], over 10 µM; in experiment [4], over 10 µM; in experiment [5] it was over 30 µM; in experiment [6], over 10 µM. In addition, the AC50 in [7], in [8], in experiment [9], in experiment [10] and in experiment [11] was over 10 µM throughout.
Turning to `CCCS(=O)(=O)Nc1ccc(F)c(C(=O)c2c[nH]c3ncc(-c4ccc(Cl)cc4)cc23)c1F` [VEMURAFENIB], the AC50 in experiment [1], in experiment [2], in [3], in experiment [4], in experiment [5] and in [6] was over 30 µM in each case. Besides, the AC50 in experiment [7], in [8], in experiment [9], in [10] and in experiment [11] was over 30 µM throughout.

These data come from ChEMBL document CHEMBL5291721, “A preclinical secondary pharmacology resource illuminates target-adverse drug reaction associations of marketed drugs” (Nat Commun, 2023).
